From patent US11058756B2, “Compositions and methods of treating autoimmune disease by reducing enterococcus” (YALE UNIVERSITY, priority 2017, dated 2021)

Test system: (NZWxBXSB)F1 mice
Assay: Oral antibiotics in drinking water: mortality, clinical outcome, proteinuria and organ histology in the autoimmune hybrid model
Type: in vivo, mouse
From the text: 6-week-old male (NZWxBXSB)F1 mice and C57BL/6J mice were used in this study except if noted otherwise. (NZWxBXSB)F1 were bred by mating NZW/LaJ females with BXSB/MpJ males obtained from Jackson Laboratory (Bar Harbor, Me., USA). Parental littermates of (NZWxBXSB)F1 were randomly mixed with littermates from other parental cages 21 days after birth to equilibrate the microbiomes from different cages and parental origin. All mice were maintained in a specific-pathogen-free environment. (NZWxBXSB)F1 mice were provided with water and a standard laboratory diet ad libitum (2018 Harlan Teklad, South Easton, Mass., USA). They were supplied with hardwood chips as bedding and were housed in a temperature-controlled, air-conditioned room on a 12-hr light-dark cycle. Germ-free (GF) C57BL/6 mice were kept under sterile conditions in CBC's (Class Biologically Clean, Madison, Wis., USA) Quad flexible film isolators (Softwall), exposed to a 12-hr light/dark cycle and provided standard, autoclaved tap water and mouse chow (2018S Harlan Teklad, South Easton, Mass., USA) ad libitum. To exclude a Th17 bias, a PCR for segmented filamentous bacteria (SFB) was performed on fecal DNA from all mice involving Th17 studies. Fecal SFB detection at 6-8 weeks of age that correlates with ileal SFB colonization was performed as described (Barman et al., 2008, Infect Immun, 76, 907-915; Kriegel et al., 2011, Proc Natl Acad Sci USA, 108, 11548-11553). All Th17 data was derived from SFB-negative animals.
Mice were cohoused for 3 to 4 weeks before antibiotic treatment to allow for equilibration of the microbiota. Single antibiotic or broad-spectrum antibiotic administration consisted of metronidazole (1 g/liter; Fisher Scientific), neomycin (1 g/liter; Fisher Scientific), ampicillin (1 g/liter; Sigma) and vancomycin (0.5 g/liter; Acros Organics) in the drinking water for up to 22 weeks or a targeted regiment for 2 weeks and then replaced with regular water for the duration of the experiment. For broad-spectrum antibiotic experiments (vancomycin, ampicillin, metronidazole, and neomycin combined), sweetener (Equal, 4 g/L) was added to both the antibiotics and control water due to the metallic taste of metronidazole. Twenty-four hours after cessation of antibiotic water, mice were administered 1×10^6 CFUs of vancomycin-resistant E. gallinarum via oral gavage, isolated from liver tissue of a vancomycin-treated mouse that continued to show signs of autoimmune disease (high-level resistance was confirmed by vanC gene PCR). E. gallinarum was grown at 37° C. in Gifu Anaerobic Broth (HIMEDIA Laboratories) to early stationary phase under anaerobic conditions (82% N2, 15% CO2, 3% H2 by volume) in an anaerobic chamber and diluted in PBS to 10^7 CFUs.
Samples were obtained at autopsy and fixed in 10% neutral formalin, and histological sections were stained with hematoxylin and eosin (H&E) and scored in a blinded fashion. Glomerulonephritis was scored on a scale of 0-4 based on the intensity and extent of histopathological changes (Klopfleisch, 2013, BMC Vet Res, 9, 123). A grade of 0 was given to kidneys without glomerular lesions; grade 1 consisted of minimal thickening of the mesangium; grade 2 contained noticeable increases in both mesangial and glomerular cellularity; grade 3 was characterized by the preceding conditions with superimposed inflammatory exudates and capsular adhesions; and grade 4 consisted of obliterated glomerular architecture in greater than 70% of glomeruli. […]

## CN[C@H](CC(C)C)C(=O)N[C@H]1C(=O)N[C@@H](CC(N)=O)C(=O)N[C@H]2C(=O)N[C@H]3C(=O)N[C@H](C(=O)N[C@H](C(=O)O)c4cc(O)cc(O)c4-c4cc3ccc4O)[C@H](O)c3ccc(c(Cl)c3)Oc3cc2cc(c3O[C@@H]2O[C@H](CO)[C@@H](O)[C@H](O)[C@H]2O[C@H]2C[C@](C)(N)[C@H](O)[C@H](C)O2)Oc2ccc(cc2Cl)[C@H]1O [vancomycin]
Single antibiotic in drinking water from 6 weeks of age, followed for 30 weeks or until death, FIG. 1A
  Mortality: prevented
Single antibiotic in drinking water, FIG. 1D-1I
  autoimmune manifestations (proteinuria, organ histology scores): prevented
